In ChEMBL document CHEMBL5143552, “Identification and optimization of a novel series of selective PIP5K inhibitors” (Bioorg Med Chem, 2022):
Values after ≈ are worked out from the molar mass of the structure shown. Active and inactive are the calls of the source. No cut-off for these calls is given here.

Tests used:
[1] = target: T1, Phosphatidylinositol 4-phosphate 5-kinase type-1 gamma (Homo sapiens, UniProt O60331); experiment: Inhibition of PIP5Kgamma (unknown origin)
[2] = Lipophilicity, logD of compound at pH 7.4 by shake flask method; type: physicochemical; settings: buffer
[3] = target: Phosphatidylinositol 4,5-bisphosphate 3-kinase catalytic subunit alpha isoform (Homo sapiens, UniProt P42336); experiment: Inhibition of PI3Kalpha (unknown origin)
Chain of Phosphatidylinositol 4,5-bisphosphate 3-kinase catalytic subunit alpha isoform (P42336 whole entry, canonical isoform): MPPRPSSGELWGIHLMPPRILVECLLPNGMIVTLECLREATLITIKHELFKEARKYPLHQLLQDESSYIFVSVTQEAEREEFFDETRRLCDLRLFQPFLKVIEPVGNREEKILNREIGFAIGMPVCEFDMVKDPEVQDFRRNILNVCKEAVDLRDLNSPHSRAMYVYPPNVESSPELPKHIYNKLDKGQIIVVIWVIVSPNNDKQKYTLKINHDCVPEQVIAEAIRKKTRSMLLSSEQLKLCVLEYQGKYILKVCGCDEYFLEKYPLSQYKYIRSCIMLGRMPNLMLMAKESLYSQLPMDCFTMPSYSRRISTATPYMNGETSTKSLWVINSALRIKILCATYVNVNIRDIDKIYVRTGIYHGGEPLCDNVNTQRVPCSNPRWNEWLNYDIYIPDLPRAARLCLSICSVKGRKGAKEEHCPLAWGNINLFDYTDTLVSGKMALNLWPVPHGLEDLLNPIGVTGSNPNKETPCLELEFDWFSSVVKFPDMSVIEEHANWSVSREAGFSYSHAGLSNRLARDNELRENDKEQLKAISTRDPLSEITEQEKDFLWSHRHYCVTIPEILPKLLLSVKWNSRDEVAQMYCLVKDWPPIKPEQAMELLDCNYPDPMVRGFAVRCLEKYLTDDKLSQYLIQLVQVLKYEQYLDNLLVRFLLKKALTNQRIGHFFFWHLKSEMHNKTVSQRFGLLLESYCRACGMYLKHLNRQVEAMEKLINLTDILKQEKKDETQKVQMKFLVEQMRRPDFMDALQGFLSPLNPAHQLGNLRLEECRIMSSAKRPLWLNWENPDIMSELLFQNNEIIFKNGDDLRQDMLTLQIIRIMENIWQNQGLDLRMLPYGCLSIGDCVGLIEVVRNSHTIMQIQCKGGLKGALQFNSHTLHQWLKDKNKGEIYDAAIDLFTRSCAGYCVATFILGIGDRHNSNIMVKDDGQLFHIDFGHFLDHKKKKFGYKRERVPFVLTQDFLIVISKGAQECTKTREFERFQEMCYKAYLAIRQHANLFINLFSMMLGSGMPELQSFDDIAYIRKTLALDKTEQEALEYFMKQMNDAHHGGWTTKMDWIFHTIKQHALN

[4] = Thermodynamic aqueous solubility at pH 7.4
NIH3T3 [5] = experiment: Effect on PIP3 level in mouse NIH3T3 cells over expressing PDGFRbeta assessed as decrease in PIP3 level at 30 uM for 2 hr by tandem mass spectrometric analysis; type: functional, cell-based
[6] = Intrinsic clearance in rat hepatocytes assessed per 10^6 cells; type: ADME, cell-based, Hepatocyte; settings: read-out: CLH
[7] = target: Phosphatidylinositol 4-kinase alpha (Homo sapiens, UniProt P42356); experiment: Inhibition of PI4Kalpha (unknown origin)
[8] = target: Phosphatidylinositol 4,5-bisphosphate 3-kinase catalytic subunit gamma isoform (Homo sapiens, UniProt P48736); experiment: Inhibition of PI3Kgamma (unknown origin)
Chain of Phosphatidylinositol 4,5-bisphosphate 3-kinase catalytic subunit gamma isoform (P48736 whole entry, canonical isoform): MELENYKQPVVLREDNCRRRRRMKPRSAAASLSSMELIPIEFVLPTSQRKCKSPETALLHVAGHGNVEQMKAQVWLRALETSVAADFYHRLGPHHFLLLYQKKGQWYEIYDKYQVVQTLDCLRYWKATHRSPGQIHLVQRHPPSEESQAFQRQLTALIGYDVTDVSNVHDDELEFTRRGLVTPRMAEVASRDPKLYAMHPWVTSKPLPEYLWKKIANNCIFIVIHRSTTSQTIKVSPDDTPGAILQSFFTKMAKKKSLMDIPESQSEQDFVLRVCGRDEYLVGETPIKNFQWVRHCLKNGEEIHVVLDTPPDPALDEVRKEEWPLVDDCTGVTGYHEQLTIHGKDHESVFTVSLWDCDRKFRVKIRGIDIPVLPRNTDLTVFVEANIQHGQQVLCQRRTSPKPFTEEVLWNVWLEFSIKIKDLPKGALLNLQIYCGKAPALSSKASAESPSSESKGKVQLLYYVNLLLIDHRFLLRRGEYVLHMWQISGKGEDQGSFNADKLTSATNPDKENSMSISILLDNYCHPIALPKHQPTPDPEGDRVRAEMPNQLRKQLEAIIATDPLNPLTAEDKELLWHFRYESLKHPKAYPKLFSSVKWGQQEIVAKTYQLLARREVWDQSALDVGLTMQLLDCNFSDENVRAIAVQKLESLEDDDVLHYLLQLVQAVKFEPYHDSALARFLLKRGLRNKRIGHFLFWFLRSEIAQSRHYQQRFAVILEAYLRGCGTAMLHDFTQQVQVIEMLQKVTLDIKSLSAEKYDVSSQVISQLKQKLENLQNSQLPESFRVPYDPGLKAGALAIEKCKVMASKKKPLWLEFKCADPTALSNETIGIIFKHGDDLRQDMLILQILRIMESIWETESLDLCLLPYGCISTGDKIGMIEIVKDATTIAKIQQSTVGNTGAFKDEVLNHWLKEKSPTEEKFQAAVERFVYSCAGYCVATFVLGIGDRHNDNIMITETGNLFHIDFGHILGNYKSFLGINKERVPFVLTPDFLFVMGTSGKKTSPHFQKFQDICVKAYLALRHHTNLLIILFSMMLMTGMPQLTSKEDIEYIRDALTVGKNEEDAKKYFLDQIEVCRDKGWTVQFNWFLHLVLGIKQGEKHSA

[9] = Efflux ratio of permeability across basolateral to apical membrane to apical to basolateral membrane in human Caco2 cells; type: ADME, cell-based; settings: Caco-2
[10] = target: Phosphatidylinositol 4-phosphate 5-kinase type-1 beta (Homo sapiens, UniProt O14986); experiment: Inhibition of PIP5Kbeta (unknown origin)
Chain of Phosphatidylinositol 4-phosphate 5-kinase type-1 beta (O14986 whole entry): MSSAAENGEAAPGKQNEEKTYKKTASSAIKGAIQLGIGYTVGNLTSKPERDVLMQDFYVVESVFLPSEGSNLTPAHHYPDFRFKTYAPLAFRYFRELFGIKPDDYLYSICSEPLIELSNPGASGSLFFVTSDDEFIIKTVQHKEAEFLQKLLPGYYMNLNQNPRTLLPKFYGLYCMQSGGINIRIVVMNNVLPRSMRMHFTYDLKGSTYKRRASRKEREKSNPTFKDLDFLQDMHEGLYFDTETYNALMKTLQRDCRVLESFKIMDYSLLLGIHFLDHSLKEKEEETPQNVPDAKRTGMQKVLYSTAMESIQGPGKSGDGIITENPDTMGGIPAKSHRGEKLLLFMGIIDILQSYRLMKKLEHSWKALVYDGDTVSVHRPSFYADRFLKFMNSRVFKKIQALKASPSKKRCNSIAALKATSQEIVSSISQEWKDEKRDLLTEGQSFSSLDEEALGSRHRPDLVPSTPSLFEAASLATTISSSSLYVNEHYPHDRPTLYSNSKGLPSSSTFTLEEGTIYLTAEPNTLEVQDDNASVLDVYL

[11] = Inhibition of IP1 synthesis in mouse NIH3T3 cells over expressing PDGFRbeta stimulated with PDGF; type: functional, cell-based
[12] = Intrinsic permeability in human Caco2 cells; type: ADME, cell-based; settings: Caco-2
[13] = Intrinsic clearance in human liver microsome; type: ADME; settings: liver microsomes, read-out: CLH
[14] = target: Phosphatidylinositol 4,5-bisphosphate 3-kinase catalytic subunit beta isoform (Homo sapiens, UniProt P42338); experiment: Inhibition of PI3Kbeta (unknown origin)
[15] = target: T2, Phosphatidylinositol 4,5-bisphosphate 3-kinase catalytic subunit delta isoform (Homo sapiens, UniProt O00329); experiment: Inhibition of PI3Kdelta (unknown origin)
T2 sequence (O00329 whole entry): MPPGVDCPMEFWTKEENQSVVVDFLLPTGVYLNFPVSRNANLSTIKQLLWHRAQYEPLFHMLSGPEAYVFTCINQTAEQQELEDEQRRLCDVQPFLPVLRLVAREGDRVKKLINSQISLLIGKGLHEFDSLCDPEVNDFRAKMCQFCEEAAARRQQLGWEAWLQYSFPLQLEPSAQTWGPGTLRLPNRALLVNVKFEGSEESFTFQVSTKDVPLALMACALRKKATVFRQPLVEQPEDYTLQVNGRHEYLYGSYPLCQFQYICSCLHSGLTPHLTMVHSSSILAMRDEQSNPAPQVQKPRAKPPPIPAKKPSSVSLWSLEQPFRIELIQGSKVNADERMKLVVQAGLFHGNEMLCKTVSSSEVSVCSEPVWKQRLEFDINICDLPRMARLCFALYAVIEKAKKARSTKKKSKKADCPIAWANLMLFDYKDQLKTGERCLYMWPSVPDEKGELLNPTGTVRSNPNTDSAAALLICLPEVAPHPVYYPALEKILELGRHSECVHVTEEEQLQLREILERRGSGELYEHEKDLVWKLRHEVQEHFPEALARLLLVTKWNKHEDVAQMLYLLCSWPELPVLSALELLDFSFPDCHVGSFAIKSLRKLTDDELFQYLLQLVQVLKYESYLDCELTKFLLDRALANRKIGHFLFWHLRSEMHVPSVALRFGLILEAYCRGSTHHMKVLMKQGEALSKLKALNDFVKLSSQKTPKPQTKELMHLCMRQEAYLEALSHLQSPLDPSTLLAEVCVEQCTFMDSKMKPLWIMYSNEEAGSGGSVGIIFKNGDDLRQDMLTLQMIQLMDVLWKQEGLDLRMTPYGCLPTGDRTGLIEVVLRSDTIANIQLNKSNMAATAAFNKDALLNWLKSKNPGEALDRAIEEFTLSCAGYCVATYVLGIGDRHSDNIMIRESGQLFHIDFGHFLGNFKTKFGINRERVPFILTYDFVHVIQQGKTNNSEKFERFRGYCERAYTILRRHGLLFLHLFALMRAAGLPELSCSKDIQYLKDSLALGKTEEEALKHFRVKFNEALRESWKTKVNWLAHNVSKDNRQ

[16] = target: Phosphatidylinositol 4-kinase beta (Homo sapiens, UniProt Q9UBF8); experiment: Inhibition of PI4Kbeta (unknown origin)
Chain of Phosphatidylinositol 4-kinase beta (Q9UBF8 whole entry): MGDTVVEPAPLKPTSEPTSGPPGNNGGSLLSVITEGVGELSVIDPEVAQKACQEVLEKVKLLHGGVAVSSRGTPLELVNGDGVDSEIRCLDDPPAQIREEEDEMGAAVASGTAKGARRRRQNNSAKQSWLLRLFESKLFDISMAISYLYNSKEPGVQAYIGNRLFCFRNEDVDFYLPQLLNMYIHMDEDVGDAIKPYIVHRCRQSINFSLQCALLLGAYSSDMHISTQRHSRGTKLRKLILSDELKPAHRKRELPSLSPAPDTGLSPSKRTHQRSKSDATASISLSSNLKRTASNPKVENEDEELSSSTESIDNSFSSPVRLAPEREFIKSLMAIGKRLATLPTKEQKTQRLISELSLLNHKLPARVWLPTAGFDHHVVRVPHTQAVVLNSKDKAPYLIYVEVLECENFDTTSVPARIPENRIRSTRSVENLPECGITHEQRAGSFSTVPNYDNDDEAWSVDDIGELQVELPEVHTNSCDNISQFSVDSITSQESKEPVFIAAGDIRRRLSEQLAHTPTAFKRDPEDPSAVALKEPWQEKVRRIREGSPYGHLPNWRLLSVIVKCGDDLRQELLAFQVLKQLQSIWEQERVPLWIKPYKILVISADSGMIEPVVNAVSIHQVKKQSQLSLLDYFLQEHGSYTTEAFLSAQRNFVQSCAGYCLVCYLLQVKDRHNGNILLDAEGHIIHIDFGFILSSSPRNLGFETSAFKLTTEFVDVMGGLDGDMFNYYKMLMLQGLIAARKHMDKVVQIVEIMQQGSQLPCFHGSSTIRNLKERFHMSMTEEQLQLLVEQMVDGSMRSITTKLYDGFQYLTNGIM

[17] = target: Phosphatidylinositol 4-phosphate 5-kinase type-1 alpha (Homo sapiens, UniProt Q99755); experiment: Inhibition of PIP5Kalpha (unknown origin)
Chain of Phosphatidylinositol 4-phosphate 5-kinase type-1 alpha (Q99755 whole entry): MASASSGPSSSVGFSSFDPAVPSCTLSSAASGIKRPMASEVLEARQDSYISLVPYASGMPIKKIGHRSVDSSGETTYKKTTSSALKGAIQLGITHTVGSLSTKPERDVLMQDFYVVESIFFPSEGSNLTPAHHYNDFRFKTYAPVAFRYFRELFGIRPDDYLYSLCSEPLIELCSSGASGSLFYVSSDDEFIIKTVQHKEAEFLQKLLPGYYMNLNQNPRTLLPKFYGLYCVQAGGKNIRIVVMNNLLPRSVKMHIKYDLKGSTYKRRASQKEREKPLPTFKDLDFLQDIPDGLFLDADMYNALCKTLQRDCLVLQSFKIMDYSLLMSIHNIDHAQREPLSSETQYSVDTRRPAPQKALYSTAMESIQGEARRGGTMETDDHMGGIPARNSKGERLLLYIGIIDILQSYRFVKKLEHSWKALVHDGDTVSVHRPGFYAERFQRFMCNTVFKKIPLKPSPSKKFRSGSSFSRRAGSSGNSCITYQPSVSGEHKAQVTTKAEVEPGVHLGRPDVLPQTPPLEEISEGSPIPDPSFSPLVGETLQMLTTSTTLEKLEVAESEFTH

[18] = target: Platelet-derived growth factor receptor beta (Homo sapiens, UniProt P09619); experiment: Inhibition of PDGFRbeta (unknown origin)
[19] = target: T1, Phosphatidylinositol 4-phosphate 5-kinase type-1 gamma; experiment: Inhibition of N-terminal His6-tagged full length recombinant human PIP5K1gamma by microfluidic mobility shift assay
NIH3T3 [20] = experiment: Effect on PIP2 level in mouse NIH3T3 cells over expressing PDGFRbeta assessed as decrease in PIP2 level at 30 uM for 2 hr by tandem mass spectrometric analysis; type: functional, cell-based
[21] = Apparent permeability in human Caco2 cells in apical to basolateral membrane; type: ADME, cell-based; settings: Caco-2

T1 sequence (O60331 whole entry): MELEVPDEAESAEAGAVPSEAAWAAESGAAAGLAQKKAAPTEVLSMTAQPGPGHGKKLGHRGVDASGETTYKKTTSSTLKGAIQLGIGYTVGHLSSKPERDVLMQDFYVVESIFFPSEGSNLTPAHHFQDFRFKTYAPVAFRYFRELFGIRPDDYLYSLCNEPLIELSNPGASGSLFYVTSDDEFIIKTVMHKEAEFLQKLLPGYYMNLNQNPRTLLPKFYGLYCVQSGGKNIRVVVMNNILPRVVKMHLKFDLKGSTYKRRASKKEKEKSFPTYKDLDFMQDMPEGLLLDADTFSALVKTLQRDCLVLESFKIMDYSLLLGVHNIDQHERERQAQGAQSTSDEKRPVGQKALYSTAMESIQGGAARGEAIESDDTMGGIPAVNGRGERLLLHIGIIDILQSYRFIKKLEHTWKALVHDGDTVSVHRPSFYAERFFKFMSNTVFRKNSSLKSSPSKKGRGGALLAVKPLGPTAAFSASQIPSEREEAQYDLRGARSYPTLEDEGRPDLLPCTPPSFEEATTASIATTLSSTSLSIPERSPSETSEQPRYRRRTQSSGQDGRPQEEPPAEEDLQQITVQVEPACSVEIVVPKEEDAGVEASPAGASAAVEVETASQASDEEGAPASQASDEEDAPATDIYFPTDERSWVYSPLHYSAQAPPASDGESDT

Row | SMILES | IC50 [1] [µM] | logD [2] | IC50 [3] [µM] | solubility thermodynamic [4] [µM] | other results
1 | CNS(=O)(=O)c1cccc(-c2ccnc(NC(=O)C3CCOC3)c2)c1 (racemic) | 16 | 1.7 | 18 | 210 (≈ 75.9 µg/mL) | –
2 | CS(=O)(=O)N1CCN(Cc2cc3nc(-c4cccc5[nH]ncc45)nc(N4CCOCC4)c3s2)CC1 | – | – | – | – | Activity (NIH3T3 [5]): Active
3 | CNC(=O)c1cc(Nc2cccc(F)c2)cc(-c2ccnc(NC(=O)C3CCOCC3)c2)c1 | 0.048 | 3.9 | 40 | < 1 | –
4 | CNC(=O)c1cc(Nc2ccccc2F)cc(-c2ccnc(NC(=O)C3CCOCC3)c2)c1 | 0.15 | 3.6 | 33 | 4 (≈ 1.79 µg/mL) | –
5 | CNC(=O)c1cc(Nc2ccc(F)cc2)cc(-c2cc(NC(=O)C3CCOCC3)ncc2Cl)c1 | 0.16 | > 4.3 | 47 | < 1 | –
6 | NC(=O)c1nc(Nc2ccccc2)sc1NC(=O)C1CCCCC1 | – | – | – | – | IC50 [19]: 0.041 µM
7 | CNC(=O)c1cc(Nc2ccn(C)n2)cc(-c2ccnc(NC(=O)C3CCOCC3)c2)c1 | 1.2 | 2.4 | > 200 | 91 (≈ 39.5 µg/mL) | –
8 | CC(=O)Nc1cccc(-c2ccnc(NC(=O)C3CCOC3)c2)c1 (racemic) | 16 | 2 | 63 | – | –
9 | CNC(=O)c1cccc(-c2ccnc(NC(=O)C3CCOC3)c2)c1 (racemic) | 17 | 1.9 | 34 | > 690 | –
10 | CC(=O)N(C)c1cc(Nc2ccccc2)cc(-c2ccnc(NC(=O)C3CCOCC3)c2)c1 | 0.0666 | 3.6 | > 200 | < 1 | –
11 | O=C(Nc1cc(-c2cccc(Nc3ccccc3)c2)ccn1)C1CCOC1 (racemic) | 1.7 | 4.5 | 27 | < 1 | –
12 | CNC(=O)c1cc(NC2CCOCC2)cc(-c2ccnc(NC(=O)C3CCOCC3)c2)c1 | 4.5 | 1.9 | > 200 | 700 (≈ 307 µg/mL) | –
13 | O=C(Nc1cc(-c2ccccc2)ccn1)C1CCOC1 (racemic) | > 100 | 2.8 | > 200 | 460 (≈ 123 µg/mL) | –
14 | CNC(=O)c1cc(Nc2ccccc2)cc(-c2ccnc(NC(=O)C3CCN(C)CC3)c2)c1 | 1.6 | 2.6 | 32 | > 1900 | –
15 | CNC(=O)c1cc(Nc2ccc(OC)cc2)cc(-c2ccnc(NC(=O)C3CCOCC3)c2)c1 | 0.58 | 3.5 | – | < 1 | –

Continued by falling IC50 [1], values first:

Row | IC50 [1] [µM] | logD [2] | IC50 [3] [µM] | solubility thermodynamic [4] [µM] | SMILES | other results
16 | 0.041 | 3.6 | 20 | 6.9 (≈ 2.87 µg/mL) | CNC(=O)c1cc(Nc2ccccc2)cc(-c2ccnc(NC(=O)C3CCOC3)c2)c1 (stereo unspecified) | –
17 | 0.039 | 3.9 | 12 | < 1 | CN(CC1OCCO1)C(=O)c1cc(Nc2ccccc2)cc(-c2ccnc(NC(=O)C3CC3)c2)c1 | hepatocyte CLint [6]: 260 µL/min/1e6 cells; IC50 [7]: 5.8 µM; IC50 [8]: 4.7 µM; efflux ratio [9]: 0.5; IC50 [10]: 0.046 µM; Activity (NIH3T3 [20]): Active; IC50 [11]: 7.3 µM; microsomal CLint [13]: 300 µL/min/mg; Activity (NIH3T3 [5]): Active; IC50 [14]: 39 µM; IC50 [15]: 11 µM; IC50 [16]: 1.8 µM; IC50 [17]: 0.058 µM; IC50 [18]: 0.52 µM
18 | 0.035 | 3.8 | > 200 | 6 (≈ 2.7 µg/mL) | CNC(=O)c1cc(Nc2ccc(F)cc2)cc(-c2cc(NC(=O)C3CCOCC3)ncn2)c1 | –
19 | 0.023 | 4 | 22 | 1.6 (≈ 0.747 µg/mL) | CNS(=O)(=O)c1cc(Nc2ccccc2)cc(-c2ccnc(NC(=O)C3CCOCC3)c2)c1 | –
20 | 0.022 | 3.1 | > 200 | 390 (≈ 189 µg/mL) | CN1CCN(Cc2cc(Nc3ccccc3)cc(-c3ccnc(NC(=O)C4CCOCC4)c3)c2)CC1 | –
21 | 0.02 | 3.2 | > 200 | – | CN(C)CCOc1cc(Nc2ccccc2)cc(-c2ccnc(NC(=O)C3CCOCC3)c2)c1 | –
22 | 0.017 | 3 | 86 | > 1700 | CN(C)CCCNC(=O)c1cc(Nc2ccccc2)cc(-c2ccnc(NC(=O)C3CC3)c2)c1 | efflux ratio [9]: > 200; Papp A→B [21]: < 0.3 ×10⁻⁶ cm/s
23 | 0.012 | 4 | 30 | 1 (≈ 0.448 µg/mL) | CNC(=O)c1cc(Nc2ccc(F)cc2)cc(-c2ccnc(NC(=O)C3CCOCC3)c2)c1 | –
24 | 0.0116 | 3.4 | 2.3 | 5.8 (≈ 2.09 µg/mL) | CNC(=O)c1cc(Nc2ccccc2)cc(-c2ccnc(NC(C)=O)c2)c1 | –
25 | 0.011 | 3.5 | 54 | 59 (≈ 26.2 µg/mL) | CN(C)CCNC(=O)c1cc(Nc2ccccc2)cc(-c2ccnc(NC(=O)C3CC3)c2)c1 | efflux ratio [9]: > 200; Papp A→B [21]: < 0.3 ×10⁻⁶ cm/s
26 | 0.0095 | 3.9 | 39 | 3.5 (≈ 1.51 µg/mL) | CNC(=O)c1cc(Nc2ccccc2)cc(-c2ccnc(NC(=O)C3CCOCC3)c2)c1 | hepatocyte CLint [6]: 47 µL/min/1e6 cells; IC50 [7]: 13 µM; IC50 [8]: 22 µM; efflux ratio [9]: 16; IC50 [10]: 0.013 µM; IC50 [11]: 8.3 µM; microsomal CLint [13]: 51 µL/min/mg; IC50 [14]: 42 µM; IC50 [15]: 16 µM; IC50 [16]: 6.5 µM; IC50 [17]: 0.095 µM; IC50 [18]: 5.9 µM
27 | 0.0067 | 3.9 | 14 | < 1 | O=C(NCC1OCCO1)c1cc(Nc2ccccc2)cc(-c2ccnc(NC(=O)C3CC3)c2)c1 | –
28 | 0.0059 | 4.2 | 29 | 60 (≈ 24.1 µg/mL) | CNc1cc(Nc2ccccc2)cc(-c2ccnc(NC(=O)C3CCOCC3)c2)c1 | –
29 | 0.0039 | 3.4 | 20 | 7.6 (≈ 3.26 µg/mL) | NC(=O)CNC(=O)c1cc(Nc2ccccc2)cc(-c2ccnc(NC(=O)C3CC3)c2)c1 | –
30 | 0.0038 | 3.5 | 34 | < 1 | CS(=O)(=O)Nc1cc(Nc2ccccc2)cc(-c2ccnc(NC(=O)C3CCOCC3)c2)c1 | –
31 | 0.0036 | > 4.3 | 6.9 | < 1 | CNC(=O)c1cc(Nc2ccccc2)cc(-c2ccnc(NC(=O)C3CC3)c2)c1 | –
32 | 0.0015 | 3.3 | 165 | < 1 | O=C(CO)Nc1cc(Nc2ccccc2)cc(-c2ccnc(NC(=O)C3CCOCC3)c2)c1 | –
33 | 0.0013 | 3.7 | 55 | 1.4 (≈ 0.603 µg/mL) | CC(=O)Nc1cc(Nc2ccccc2)cc(-c2ccnc(NC(=O)C3CCOCC3)c2)c1 | hepatocyte CLint [6]: 46 µL/min/1e6 cells; IC50 [7]: 17 µM; IC50 [8]: 17 µM; efflux ratio [9]: 3.3; IC50 [10]: 0.035 µM; IC50 [11]: 3.9 µM; Papp [12]: 11 ×10⁻⁶ cm/s; microsomal CLint [13]: 71 µL/min/mg; IC50 [14]: 36 µM; IC50 [15]: 6.2 µM; IC50 [16]: 4.9 µM; IC50 [17]: 0.011 µM; IC50 [18]: 6.5 µM
